Assay results published in patent US6355799B1, “Substituted benzene compounds, process for their preparation, and herbicidal and defoliant compositions containing them” (ISK Americas Incorporated, priority 1997, dated 2002).

Legend:
Type in all cases: in vivo
[1] = system: upland rice (Oryza sp., var. Tebonnet, RICE); test: Pre-emerge test, crop safety; conditions: pre-emerge, 14 days after application; for phytotoxicity rating RICE (crop damage): scale 0-100; for phytotoxicity rating RICE: rating scale 0-100
How it was run: (§1)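 Rating: 0–100 visual injury, 14 DAA. Application: acetone, 187 l/ha, 15–1000 g ai/ha, flat-fan track sprayer with nozzle 40–45 cm above soil or canopy. Post-emerge runs used 0.25% v/v surfactant on 2–3 leaf plants.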

[2] = system: field corn (Zea mays L., var. Dekalb 535, CORN); test: Pre-emerge test, crop safety; conditions: pre-emerge, 14 days after application; for phytotoxicity rating CORN (crop damage): scale 0-100; for phytotoxicity rating CORN: rating scale 0-100
How it was run: as §1

[3] = system: sicklepod (Cassia obtusifolia, CASOB); test: Pre-emerge test, greenhouse herbicide activity screening; conditions: pre-emerge, 14 days after application
How it was run: (§2)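 Plants grown in 10 cm pots of sandy loam mix received acetone-dissolved compounds through a moving flat-fan nozzle. Doses ranged from 15 to 1000 g ai/ha. Pre-emerge pots were seeded one day earlier, post-emerge pots 8–21 days earlier. Fourteen days on, each pot was graded 0–100 for damage.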

[4] = system: ivyleaf morningglory (Ipomoea hederacea, IPOHE); test: as above; conditions: pre-emerge, 14 days after application
How it was run: as §2

[5] = system: green foxtail (Setaria viridis, SETVI); test: as above; conditions: pre-emerge, 14 days after application
How it was run: as §2

[6] = system: johnsongrass (Sorghum halepense, SORHA); test: as above; conditions: pre-emerge, 14 days after application
How it was run: as §2

[7] = system: lambsquarters (Chenopodium album, CHEAL); test: as above; conditions: pre-emerge, 14 days after application
How it was run: as §2

[8] = system: common ragweed (Ambrosia artemisizfolia L., AMBEL); test: as above; conditions: pre-emerge, 14 days after application
How it was run: as §2

[9] = system: large crabgrass (Digitaria sanguinalis, DIGSA); test: as above; conditions: pre-emerge, 14 days after application
How it was run: as §2

[10] = system: barnyardgrass (Echinochloa crus-galli, ECHCG); test: as above; conditions: pre-emerge, 14 days after application
How it was run: as §2

[11] = system: velvetleaf (Abutilon theophrasti, ABUTH); test: as above; conditions: pre-emerge, 14 days after application
How it was run: as §2

[12] = system: redroot pigweed (Amaranthus retroflexus, AMARE); test: as above; conditions: pre-emerge, 14 days after application
How it was run: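 Herbicidal damage is scored 0 (none) to 100 (complete plant death) two weeks after a simulated field spray. Rates span 15–1000 g ai/ha, delivered in acetone at 187 l/ha. For post-emergence treatments, plants have 2–3 leaves and the spray carries 0.25% v/v non-ionic surfactant.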

[13] = system: upland rice (Oryza sp., var. Tebonnet, RICE); test: Post-emerge test, crop safety; conditions: post-emerge, 14 days after application, rating scale 0-100
How it was run: (§3)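 Each test used a mechanized track sprayer delivering 187 l/ha of acetone solution at 15–1000 g ai/ha. Post-emerge foliage at 2–3 leaves was treated with added 0.25% v/v non-ionic surfactant and bottom-watered only. Injury was assessed on day 14, where 100 means total kill.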

[14] = system: field corn (Zea mays L., var. Dekalb 535, CORN); test: Post-emerge test, crop safety; conditions: post-emerge, 14 days after application, rating scale 0-100
How it was run: as §3

[15] = system: redroot pigweed (Amaranthus retroflexus, AMARE); test: Post-emerge test, greenhouse herbicide activity screening; conditions: post-emerge, 14 days after application
How it was run: as §1

[16] = system: sicklepod (Cassia obtusifolia, CASOB); test: as above; conditions: post-emerge, 14 days after application, rating scale 0-100
How it was run: as §1

[17] = system: ivyleaf morningglory (Ipomoea hederacea, IPOHE); test: as above; conditions: post-emerge, 14 days after application, rating scale 0-100
How it was run: as §1

[18] = system: green foxtail (Setaria viridis, SETVI); test: as above; conditions: post-emerge, 14 days after application, rating scale 0-100
How it was run: as §1

[19] = system: lambsquarters (Chenopodium album, CHEAL); test: as above; conditions: post-emerge, 14 days after application, rating scale 0-100
How it was run: as §1

[20] = system: common ragweed (Ambrosia artemisizfolia L., AMBEL); test: as above; conditions: post-emerge, 14 days after application, rating scale 0-100
How it was run: as §1

[21] = system: large crabgrass (Digitaria sanguinalis, DIGSA); test: as above; conditions: post-emerge, 14 days after application, rating scale 0-100
How it was run: as §1

[22] = system: barnyardgrass (Echinochloa crus-galli, ECHCG); test: as above; conditions: post-emerge, 14 days after application, rating scale 0-100
How it was run: as §1

[23] = system: velvetleaf (Abutilon theophrasti, ABUTH); test: as above; conditions: post-emerge, 14 days after application, rating scale 0-100
How it was run: as §1

[24] = 250 g ai/ha, rating scale 0-100

Cn1c(C(F)(F)F)cc(=O)n(-c2c(F)cc(Cl)cc2NC2CC2)c1=O [2-147]
phytotoxicity rating RICE (crop damage) ([1]; 63 g ai/ha): 99 | phytotoxicity rating RICE (crop damage) ([1]; 250 g ai/ha): 100 | phytotoxicity rating CORN (crop damage) ([2]; 63 g ai/ha): 100 | phytotoxicity rating CORN (crop damage) ([2]; 250 g ai/ha): 100 | phytotoxicity rating CASOB ([3]; 63 g ai/ha, scale 0-100): 40 | phytotoxicity rating CASOB ([3]; 250 g ai/ha, scale 0-100): 100 | phytotoxicity rating IPOHE ([4]; 63 g ai/ha, scale 0-100): 80 | phytotoxicity rating IPOHE ([4]; 250 g ai/ha, scale 0-100): 100 | phytotoxicity rating SETVI ([5]; 63 g ai/ha, scale 0-100): 100 | phytotoxicity rating SETVI ([5]; 250 g ai/ha, scale 0-100): 100 | phytotoxicity rating SORHA ([6]; 63 g ai/ha, scale 0-100): 90 | phytotoxicity rating SORHA ([6]; 250 g ai/ha, scale 0-100): 100 | phytotoxicity rating CHEAL ([7]; 63 g ai/ha, scale 0-100): 100 | phytotoxicity rating CHEAL ([7]; 250 g ai/ha, scale 0-100): 100 | phytotoxicity rating AMBEL ([8]; 63 g ai/ha, scale 0-100): 80 | phytotoxicity rating AMBEL ([8]; 250 g ai/ha, scale 0-100): 100 | phytotoxicity rating DIGSA ([9]; 63 g ai/ha, scale 0-100): 90 | phytotoxicity rating DIGSA ([9]; 250 g ai/ha, scale 0-100): 100 | phytotoxicity rating ECHCG ([10]; 63 g ai/ha, scale 0-100): 90 | phytotoxicity rating ECHCG ([10]; 250 g ai/ha, scale 0-100): 100 | phytotoxicity rating ABUTH ([11]; 63 g ai/ha, scale 0-100): 100 | phytotoxicity rating ABUTH ([11]; 250 g ai/ha, scale 0-100): 100 | phytotoxicity rating AMARE ([12]; 63 g ai/ha, scale 0-100): 100 | phytotoxicity rating AMARE ([12]; 250 g ai/ha, scale 0-100): 100 | RICE phytotoxicity rating (crop damage) ([13]; 63 g ai/ha): 50 | RICE phytotoxicity rating (crop damage) ([13]; 250 g ai/ha): 75 | CORN phytotoxicity rating (crop damage) ([14]; 63 g ai/ha): 15 | CORN phytotoxicity rating (crop damage) ([14]; 250 g ai/ha): 90 | AMARE phytotoxicity rating ([15]; 63 g ai/ha, rating scale 0-100): 100 | AMARE phytotoxicity rating [15, 24]: 100 | CASOB phytotoxicity rating ([16]; 63 g ai/ha): 80 | CASOB phytotoxicity rating ([16]; 250 g ai/ha): 95 | IPOHE phytotoxicity rating ([17]; 63 g ai/ha): 100 | IPOHE phytotoxicity rating ([17]; 250 g ai/ha): 100 | SETVI phytotoxicity rating ([18]; 63 g ai/ha): 20 | SETVI phytotoxicity rating ([18]; 250 g ai/ha): 40 | CHEAL phytotoxicity rating ([19]; 63 g ai/ha): 100 | CHEAL phytotoxicity rating ([19]; 250 g ai/ha): 100 | AMBEL phytotoxicity rating ([20]; 63 g ai/ha): 95 | AMBEL phytotoxicity rating ([20]; 250 g ai/ha): 100 | DIGSA phytotoxicity rating ([21]; 63 g ai/ha): 20 | DIGSA phytotoxicity rating ([21]; 250 g ai/ha): 50 | ECHCG phytotoxicity rating ([22]; 63 g ai/ha): 10 | ECHCG phytotoxicity rating ([22]; 250 g ai/ha): 50 | ABUTH phytotoxicity rating ([23]; 63 g ai/ha): 100 | ABUTH phytotoxicity rating ([23]; 250 g ai/ha): 100

CCOc1c(Cl)cc(F)c(-n2c(=O)cc(C(F)(F)F)n(C)c2=O)c1Cl [14-62]
phytotoxicity rating RICE ([1]; 63 g ai/ha): 0 | phytotoxicity rating RICE ([1]; 250 g ai/ha): 15 | phytotoxicity rating CORN ([2]; 63 g ai/ha): 0 | phytotoxicity rating CORN ([2]; 250 g ai/ha): 5 | phytotoxicity rating CASOB ([3]; 63 g ai/ha, rating scale 0-100): 0 | phytotoxicity rating CASOB [3, 24]: 0 | phytotoxicity rating IPOHE ([4]; 63 g ai/ha, rating scale 0-100): 0 | phytotoxicity rating IPOHE [4, 24]: 0 | phytotoxicity rating SETVI ([5]; 63 g ai/ha, rating scale 0-100): 0 | phytotoxicity rating SETVI [5, 24]: 60 | phytotoxicity rating SORHA ([6]; 63 g ai/ha, rating scale 0-100): 0 | phytotoxicity rating SORHA [6, 24]: 60 | phytotoxicity rating CHEAL ([7]; 63 g ai/ha, rating scale 0-100): 20 | phytotoxicity rating CHEAL [7, 24]: 80 | phytotoxicity rating AMBEL ([8]; 63 g ai/ha, rating scale 0-100): 0 | phytotoxicity rating AMBEL [8, 24]: 30 | phytotoxicity rating DIGSA ([9]; 63 g ai/ha, rating scale 0-100): 0 | phytotoxicity rating DIGSA [9, 24]: 50 | phytotoxicity rating ECHCG ([10]; 63 g ai/ha, rating scale 0-100): 0 | phytotoxicity rating ECHCG [10, 24]: 20 | phytotoxicity rating ABUTH ([11]; 63 g ai/ha, rating scale 0-100): 15 | phytotoxicity rating ABUTH [11, 24]: 95 | phytotoxicity rating AMARE ([12]; 63 g ai/ha, rating scale 0-100): 40 | phytotoxicity rating AMARE [12, 24]: 100 | Post-emerge Herbicidal Activity RICE (crop damage rating) ([13]; 63 g ai/ha): 0 | Post-emerge Herbicidal Activity RICE (crop damage rating) ([13]; 250 g ai/ha): 5 | Post-emerge Herbicidal Activity CORN (crop damage rating) ([14]; 63 g ai/ha): 5 | Post-emerge Herbicidal Activity CORN (crop damage rating) ([14]; 250 g ai/ha): 5 | Post-emerge Herbicidal Activity AMARE (phytotoxicity rating) ([15]; 63 g ai/ha, rating scale 0-100 (0 no damage, 100 complete death)): 30 | Post-emerge Herbicidal Activity AMARE (phytotoxicity rating) [15, 24]: 50 | Post-emerge Herbicidal Activity CASOB (phytotoxicity rating) ([16]; 63 g ai/ha): 0 | Post-emerge Herbicidal Activity CASOB (phytotoxicity rating) ([16]; 250 g ai/ha): 30 | Post-emerge Herbicidal Activity IPOHE (phytotoxicity rating) ([17]; 63 g ai/ha): 30 | Post-emerge Herbicidal Activity IPOHE (phytotoxicity rating) ([17]; 250 g ai/ha): 50 | Post-emerge Herbicidal Activity SETVI (phytotoxicity rating) ([18]; 63 g ai/ha): 0 | Post-emerge Herbicidal Activity SETVI (phytotoxicity rating) ([18]; 250 g ai/ha): 0 | Post-emerge Herbicidal Activity CHEAL (phytotoxicity rating) ([19]; 63 g ai/ha): 10 | Post-emerge Herbicidal Activity CHEAL (phytotoxicity rating) ([19]; 250 g ai/ha): 20 | Post-emerge Herbicidal Activity AMBEL (phytotoxicity rating) ([20]; 63 g ai/ha): 40 | Post-emerge Herbicidal Activity AMBEL (phytotoxicity rating) ([20]; 250 g ai/ha): 30 | Post-emerge Herbicidal Activity DIGSA (phytotoxicity rating) ([21]; 63 g ai/ha): 0 | Post-emerge Herbicidal Activity DIGSA (phytotoxicity rating) ([21]; 250 g ai/ha): 0 | Post-emerge Herbicidal Activity ECHCG (phytotoxicity rating) ([22]; 63 g ai/ha): 0 | Post-emerge Herbicidal Activity ECHCG (phytotoxicity rating) ([22]; 250 g ai/ha): 0 | Post-emerge Herbicidal Activity ABUTH (phytotoxicity rating) ([23]; 63 g ai/ha): 40 | Post-emerge Herbicidal Activity ABUTH (phytotoxicity rating) ([23]; 250 g ai/ha): 60
